According to patent publication US20090297545A1, “IMMUNOMODULATORY DAIRY PEPTIDES AND USES THEREOF” (Universite Laval, priority 2008, published 2009):
Marks after values point to notes of the source that are not given here.

Assays:
Format in all cases: cell-based, BALB/c mice
[1] = tested on: murine splenocytes; experiment: In vitro murine splenocyte proliferation assay (Alamar Blue), Example III
Protocol: In vitro murine splenocyte proliferation assay. The impact of whey peptides on splenocyte proliferation was assessed as follow. Spleens from 6-week-old female BALB/c mice (Charles River, St-Constant, QC, Canada) were removed, mechanically disrupted in complete RPMI-1640 medium (RPMI-1640 medium supplemented with 2 mmol L^−1 L-glutamine (Wisent, St-Bruno, QC, Canada), 10% foetal calf serum (FCS, Wisent), 50 μmol L^−1 mercaptoethanol (Sigma-Aldrich), and 100 μg mL^−1 of penicillin/streptomycin (Wisent), and then filtered through 70 μm cell strainer (BD Falcon, Bedford, Mass., USA) under aseptic conditions. Erythrocytes were lysed by osmotic shock using 0.87% NH4Cl (Sigma-Aldrich) for 2 min at 37° C., then cells were washed 3 times at 4° C. with complete RPMI. They were stained with 0.4% trypan blue (Celigro, Mediatech, Washington, D.C., USA) and counted using a Malassez chamber. The cell suspension was then adjusted to 1.25×10^6 viable cells mL^−1 in RPMI medium.
The cells (100 μL) were added to the wells of 96-well round-bottomed microplates containing 50 μL of RPMI, or 50 μL of peptide solutions. Various concentrations (10-2000 μg mL^−1) of the solutions, which were prepared in complete RPMI and adjusted to pH 7, were added to the wells. The same experiments were also performed in the presence of ConA (0.5 μg mL^−1) to evaluate the effects of the products on ConA-stimulated cells. The microplates with and without ConA were incubated for 72 h and 96 h, respectively. Cell proliferation was evaluated by the reduction of the fluorochrome Alamar Blue™ (BioSource international, Camarillo, Calif., USA), which was added to the wells (20 μL) for the last 24 h of the incubation periods. The fluorescence of the supernatants was monitored at an excitation wavelength of 544 nm and an emission wavelength of […] using a fluorometer (Fluoroscan Ascent, Thermo Electron Inc., Milford, Mass., USA). Data are expressed as a stimulation index (SI).

[2] = tested on: murine splenocytes; experiment: Cytokine profile of splenocyte supernatants, RayBio Mouse Cytokine Antibody Array; settings: peptide 2000 μg/mL + ConA 0.5 μg/mL, 72 h; Cells + ConA = 1
Protocol: Cytokine analyses. After 72 hours, the supernatants from the splenocyte cultures with the cells, cells+ConA (0.5 μg/mL), and each of the peptides (2000 μg/mL) in the presence of ConA (0.5 μg/mL) were collected and stored at −20° C. until used for the cytokine detection assay. A cytokine profile analysis was performed by using the RayBio Mouse Cytokine Antibody Array G series 2 (RayBiotech, Inc., Norcross, Ga.), in order to obtain semi-quantitative levels of 32 different growth factors, cytokines and chemokines (Table 7).
Incubation protocol, signal detection, and interpretation of the data were performed according to manufacturer instructions. Results were expressed as the relative quantity of cytokines detected in the culture supernatants calculated according to the following equation: […]

[3] = tested on: murine splenocytes; experiment: Cytokine secretion in splenocyte culture supernatants by ELISA, Example I
Protocol: Cytokine analysis. The supernatants from 72 h-splenocytes cultures were collected and their cytokine content was measured. The optimal incubation times were determined from preliminary assays with peptide fractions. The levels of IL-4, IL-10 and IFN-γ were determined using commercial ELISA kits (BioLegend, San Diego, Calif., USA) according to the manufacturer's instructions. Interleukin-2 levels were also measured by ELISA using a commercial kit (BioSource International, Camarillo, Calif., USA) according to the manufacturer's instructions. The results are the means of four or more assays (three wells per sample). The detection limits for IL-2, IL-4, IL-10 and IFN-γ were <8.0, <1.0, <30.0 and <4.0 pg/mL, respectively.
Cytokine analysis were performed at concentration leading to optimal spleen cells proliferation of peptide β-Lg f139-148 (SEQ ID NO. 1) (2000 μg/mL) as reported in Tables 2 and 3. The sequence β-Lg f78-83 (SEQ ID NO. 10), resulting in no effect on the cytokine secretion of resting- and ConA-stimulated murine splenocytes (results not shown), was used as control at concentration of 10 μg/mL for statistical analysis. The effects of the selected peptide on cytokine secretion from splenocytes cultured in the absence and presence of 0.5 μg/mL of ConA are shown in Table 5.

[4] = tested on: murine splenocytes; experiment: Ex vivo murine splenocytes proliferation assay (Alamar Blue), Example I; settings: for Stimulation index, proliferation of murine splenocytes in the presence of Concavanalin A: ConA 0.5 μg/mL; for Stimulation index, proliferation of resting murine splenocytes: without ConA
Protocol: Ex vivo murine splenocytes proliferation assay. The splenocytes were isolated from 6- to 12-weeks-old female BALB/c mice (Charles River, St-Constant, QC, Canada) and cultured in the absence and presence of suboptimal concentration of ConA (0.5 μg/mL). The peptides were solubilized in complete RPMI medium, agitated overnight at 4° C. then the solutions were adjusted to pH 7. Thereafter, the peptide solutions were added at various final concentrations (10-2000 μg/mL, protein basis) to the wells of 96-well round-bottomed microplates, which were incubated at 37° C. at 80% relative humidity in a 5% CO2 atmosphere for 72 h (with ConA) or 96 h (without ConA). Cell proliferation was evaluated by the reduction of the fluorochrome Alamar Blue™ (BioSource international, Camarillo, Calif., USA), which was added into the wells for the last 24 h of the incubation periods. The fluorescence of the supernatants was monitored at an excitation wavelength of 560 nm and an emission wavelength of 590 nm using a fluorometer (Fluoroscan Ascent, Thermo Electron Inc., Milford, Mass., USA). The assays were performed in triplicate (three wells per sample) and data are expressed as stimulation indices (SI), and calculated using the following equations: […]

[5] = splenocytes with ConA 0.5 μg mL^−1, peptide 2000 μg mL^−1
[6] = splenocytes without ConA, peptide 2000 μg mL^−1

Substance	Stimulation index, proliferation of murine splenocytes in the presence of Concavanalin A ([4]; peptide 10 μg mL^−1, 72 h)	Stimulation index, proliferation of resting murine splenocytes ([4]; peptide 10 μg mL^−1, 96 h)	Stimulation index, proliferation of murine splenocytes in the presence of Concavanalin A ([4]; peptide 100 μg mL^−1, 72 h)	Stimulation index, proliferation of resting murine splenocytes ([4]; peptide 100 μg mL^−1, 96 h)	Stimulation index, proliferation of murine splenocytes in the presence of Concavanalin A ([4]; peptide 500 μg mL^−1, 72 h)	Stimulation index, proliferation of resting murine splenocytes ([4]; peptide 500 μg mL^−1, 96 h)	Stimulation index, proliferation of murine splenocytes in the presence of Concavanalin A ([4]; peptide 1000 μg mL^−1, 72 h)	Stimulation index, proliferation of resting murine splenocytes ([4]; peptide 1000 μg mL^−1, 96 h)	Stimulation index, proliferation of murine splenocytes in the presence of Concavanalin A ([4]; peptide 2000 μg mL^−1, 72 h)	Stimulation index, proliferation of resting murine splenocytes ([4]; peptide 2000 μg mL^−1, 96 h)	other results
ALK (listed as Homo sapiens) [β-Lg f139-141]											Effect on splenocyte proliferation in the presence of ConA at higher concentrations ([1]; ConA 0.5 μg/mL): lost their stimulating capacity; Concentration at which stimulation of resting cell proliferation becomes significant ([1]; resting cells, dose-dependent up to 2000 μg/mL): 500 µg/mL; Relative quantity of IFN-γ in supernatant [2]: 1.0; Relative quantity of IL-2 in supernatant [2]: 1.7; Relative quantity of IL-3 in supernatant [2]: 0.7; Relative quantity of IL-4 in supernatant [2]: 1; Relative quantity of IL-17 in supernatant [2]: 1.1; Relative quantity of RANTES in supernatant [2]: 1.7; Relative quantity of VEGF in supernatant [2]: 0.9
ALKALPMHIR (listed as Homo sapiens) [β-Lg f139-148]	2.28	1.08*	2.24	1.17**	2.36*	1.35**	2.62**	1.53**	2.73**	1.77**	IFN-γ secretion in supernatant [3, 5]: 717.5** pg mL^−1; IL-2 secretion in supernatant [3, 5]: 15.8 pg/mL; IL-4 secretion in supernatant [3, 5]: 3.0** pg mL^−1; IL-10 secretion in supernatant [3, 5]: <30.0 pg/mL; IFN-γ secretion in supernatant [3, 6]: 81.3** pg mL^−1; IL-2 secretion in supernatant [3, 6]: 9.3 pg/mL; IL-4 secretion in supernatant [3, 6]: <1.0 pg/mL; IL-10 secretion in supernatant [3, 6]: <30.0 pg/mL
ALPMHIR (listed as Homo sapiens) [β-Lg f142-148]	2.32	1.16	2.30	1.17	2.36	1.37**	2.49**	1.61**	2.63**	1.73**	
DAQSAPLR [β-Lg f33-40]											Relative quantity of IFN-γ in supernatant [2]: 0.7; Relative quantity of IL-2 in supernatant [2]: 0.6; Relative quantity of IL-3 in supernatant [2]: 0.1; Relative quantity of IL-4 in supernatant [2]: 0.7; Relative quantity of IL-17 in supernatant [2]: 0.6; Relative quantity of RANTES in supernatant [2]: 0.4; Relative quantity of VEGF in supernatant [2]: 0.8
EILLQK (UniProt P02754 71-76, looked up, fragment) [β-Lg f55-60]	1.96	1.05	1.92	1.09	1.98	1.16	1.93	1.54**	2.34**	1.54**	
IDALNENK [β-Lg f84-91]	2.20	0.99	2.27	1.08	2.24	1.20*	2.18	1.22*	2.16	1.27**	
RELKDLK [α-La f10-16]	1.85	1.06	1.95	1.19	1.95	1.47**	2.08	1.81**	2.26**	1.97**	
VAGTWY (UniProt P02754 31-36, looked up, fragment) [β-Lg f15-20]	1.65	1.01	1.71	1.12*	1.67	1.46**	1.78	1.65**	1.77	1.42**	
VLVLDTDYKKYLLF (listed as Homo sapiens) [β-Lg f92-105]	1.92	1.00	1.92	1.07	2.27**	1.15**	2.37**	1.31**	2.69**	1.55**	
